The text below walks through data of patent US8410150B2, “Inhibitors of carnitine palmitoyltransferase and treating cancer” (University Health Network, priority 2007, dated 2013).

Broadly, the GI50 is the concentration giving 50% growth inhibition.

One assay has as its system MDA-231. As to the kind of experiment: Cell growth inhibition, SRB assay. The class given is cell-based, human. The following applies: Homo sapiens, MDA-MB-231; Breast MDA-231, 3% FBS. The procedure: (§1) Compounds were dissolved in DMSO and further diluted in cell culture medium for the experiments performed. Cells were seeded into 96-well plates with 1,500-5,000 cells/well according to cell growth rate. After 24 h, DMEM medium containing 10% FBS were changed to DMEM containing 3% FBS for cancer cells and additional 3% FBS were added into the culture medium for normal cells. The compound was added into the cell culture at the indicated concentrations, and the final concentration of DMSO was adjusted to a final concentration of 0.1%. Cells were subjected to either normoxic condition (20% O2) for 6 days or hypoxic condition (0.2% O2) for 2 days and then transferred to normoxic condition for 4 days. Cell viability was assessed by Sulforhodamine B (SRB) assay at Day 6.
(§2) Sulforhodamine B (SRB) (Sigma, Oakville, ON, Canada) is a water-soluble dye that binds to the basic amino acids of the cellular proteins. Thus, colorimetric measurement of the bound dye provides an estimate of the total protein mass that is related to the cell number. The cells were fixed in situ by gently aspirating off the culture media and adding 50 ul of cold 10% trichloroacetic Acid (TCA) per well and incubated at 4° C. for 30-60 min. The plates were washed five times with water and allowed to air dry for 5 min. 50 ul of 0.4% (w/v) SRB dissolved in 1% (v/v) acetic acid were added into each well, plates were then incubated at RT for 30 min for staining, washed four times with 1% acetic acid to remove any unbound dye and then allowed to air dry for 5 min. Stain was solubilized with 100 ul of 10 mM Tris pH 10.5 per well. Absorbance was read at 570 nm on a spectrophotometer. GI50 (compound concentration required for 50% of growth inhibition) was calculated using GraphPad Prism 4.0 software (GraphPad Software, Inc., San Diego, Calif., USA).
(§3) Cell viability of various cell lines treated with 3-carboxy-N,N,N-trimethyl-2-pentadecanamidopropan-1-aminium (“nPAC”) and compound of Examples S7, S63, S66, S90, S89, S67, S75 and S10 was also assessed in a manner as described above in Example 5.

Another assay concerns Caov-3. Description: Cell growth inhibition, SRB assay. In kind it is cell-based, human. The following applies: Homo sapiens; Ovarian Caov-3, 3% FBS. The procedure: as §1, §2, §3
On the technique in general: The SRB assay estimates cell density from bound dye.

The test system of a further assay is HCT116 p53−/−. As to the kind of experiment: Cell growth inhibition, SRB assay. The following applies: Homo sapiens, HCT-116, mean±SD of 2 experiments (FIG. 2). In kind it is cell-based. As to the method: (§4) Human cancer cells (MCF-7, H358, H460, HCT116 p53^+/+, HCT116 p53^−/−, A172, PC-3, DU-145 and SW626) were maintained in DMEM medium containing 10% Fetal Bovine Serum (FBS) (Invitrogen, Burlington, ON, Canada) and normal cells HMEC, 184A1, NHBE and PrEC were cultured in MEGM, MEGM plus transferring and cholera toxin, BEGM and PrEGM supplemented with various growth factors (Cambrex, Charles city, IA, USA), respectively.
as §1, §2

For a further assay, the system named is DU-145. As to the kind of experiment: Cell growth inhibition, SRB assay. In kind it is cell-based. Conditions: Homo sapiens, mean±SD of 2 experiments (FIG. 2). As to the method: as §4, §1, §2
The test system of the next assay is HCT116 p53+/+. As to the kind of experiment: Cell growth inhibition, SRB assay. Conditions: Homo sapiens, HCT-116, mean±SD of 2 experiments (FIG. 2). In kind it is cell-based. The procedure:
as §4, §1, §2

The subject of a further assay is H460. Description: Cell growth inhibition, SRB assay. In kind it is cell-based. The following applies: Homo sapiens. The procedure: as §4, §1, §2
The test system of assay [1] is normal cells, including human mammary epithelial cell line 184A1 and human primary epithelial cells HMEC (mammary); NHBE (lung) and PrEC (prostate). Description: Growth of normal cells, SRB assay. In kind it is cell-based. Conditions: 184A1, HMEC, SRB assay (FIG. 2B). As to the method:
as §4, §1
(§5) Sulforhodamine B (SRB) (Sigma, Oakville, ON, Canada) is a water-soluble dye that binds to the basic amino acids of the cellular proteins. […] Absorbance was read at 570 nm on a spectrophotometer. […]

For the next assay, the system named is HCT116. As to the kind of experiment: Cell growth inhibition, SRB assay, normoxia and hypoxia. The class given is cell-based. The following applies: Homo sapiens. As to the method:
as §4, §1, §5

SMILES strings stand for the structures. Where two headings read alike, the source gives them in different places.

In the assay with MDA-231, `CCCCCCCCCCc1ccc(C(=O)N[C@H](CC(=O)[O-])C[N+](C)(C)C)cc1` [Example S66, (R)-3-(4-decylbenzamido)-4-(trimethylammonio)butanoate] returned a GI50 of 9.4 µM.
Turning to `CCCCCCCCc1ccc(NC(=O)N[C@H](CC(=O)[O-])C[N+](C)(C)C)cc1` [Example S7, (R)-3-(3-(4-octylphenyl)ureido)-4-(trimethylammonio)butanoate], the GI50 in the assay on MDA-231 stood at 27 µM; in the assay on Caov-3, 1.3 µM; in the assay with HCT116 p53−/−, 13 ± 0.8 µM; with DU-145 it was 24 ± 2.8 µM; in the assay with HCT116 p53+/+, 9.3 ± 1.7 µM; with H460 (NCI-H460, 144 h, H460, normoxic condition (20% O2) for 6 days, read-out: GI50 Normoxi) it was 8.8 ± 1.2 µM. The GI50 in the assay with H460 (NCI-H460, H460, hypoxic condition (0.2% O2) for 2 days, then normoxic for 4 days, read-out: GI50 Hypoxia) was 2.6 ± 0.6 µM; with H460 (NCI-H460, SRB assay, mean±SD of 2 experiments (FIG. 2), read-out: GI50 for H460), 8.8 ± 2 µM; with HCT116 (HCT-116, 144 h, normoxic condition (20% O2) for 6 days, read-out: GI50 Normoxi), 9.3 ± 0.7 µM; in the assay with HCT116 (HCT-116, hypoxic condition (0.2% O2) for 2 days, then normoxic for 4 days, read-out: GI50 Hypoxia) it was 5.7 ± 0.6 µM. Besides, the “growth inhibition of normal cells” value in assay [1] is recorded as “inhibits growth of cancer cells but not normal cells”.
For `CCCCCCCOc1ccc(NC(=O)N[C@H](CC(=O)[O-])C[N+](C)(C)C)cc1` [Example S10, (R)-3-(3-(4-(heptyloxy)phenyl)ureido)-4-(trimethylammonio)butanoate], the GI50 was greater than 50 µM in the assay with MDA-231 and 13 µM in the assay with Caov-3.
In the assay on Caov-3, `CCCCCCCCCCCCc1ccc(NS(=O)(=O)N[C@H](CC(=O)O)C[N+](C)(C)C)cc1` [Example S89, (R)-3-(N-(4-dodecylphenyl)sulfamoylamino)-4-(trimethylammonio)-butanoate] gave a GI50 of 1.5 µM.
In the case of `CCCCCCCCCCOc1ccc(C(=O)N[C@H](CC(=O)O)C[N+](C)(C)C)cc1` [Example S63, (R)-3-(4-(decyloxy)benzamido)-4-(trimethylammonio)butanoate 2,2,2-trifluoroacetate], the GI50 in the assay with MDA-231 was 8.5 µM.
In the assay on Caov-3, `CCCCCCCCCCCCCCc1ccc(NS(=O)(=O)N[C@H](CC(=O)O)C[N+](C)(C)C)cc1` [Example S90, (R)-3-(N-(4-tetradecylphenyl)sulfamoylamino)-4-(trimethylammonio)-butanoate] returned a GI50 of 1.6 µM.
Still for that read-out and setting: in the case of `CCCCCCCCCCOc1cccc(C(=O)N[C@H](CC(=O)[O-])C[N+](C)(C)C)c1` [Example S67, (R)-3-(3-(decyloxy)benzamido)-4-(trimethylammonio)butanoate] it was 0.8 µM.
